Like-named read-outs stand apart in the source and are kept apart here.
Key:
[1] = system: KB cells; assay: In vitro suppression of proliferation of KB cancer cells by concomitant use with doxorubicin; format: cell-based, Human; settings: test compound 1 μg/ml with ADM, ADM alone in KB = 1
Procedure: (§1) In vitro test of action suppressing proliferation of cancer cells by concomitant use with doxorubicin
(§2) As the incubation solutions, use was made of 10% fetal calf serum (made by Flow Laboratories) and Eagle MEM medium (made by Nissui Seiyakusha) containing 0.292 mg/ml of L-glutamine (made by Flow Laboratories). The tests of the action in overcoming resistance to anti-cancer drugs or action reinforcing the effect of the anti-cancer drug through concomitant use of the anti-cancer drug doxorubicin (adriamycin, ADM) and the test compound were performed as follows: The test cells were suspended in incubation solutions and adjusted to a cell density of about 200 cells/ml. The cell suspensions were injected in 2 ml amounts into petri dishes and were incubated in a CO2 gas incubator (5% CO2, 95% air) at 37° C. for 24 hours. Next, 5 to 10 μl of a predetermined concentration of the aqueous ADM solution and a predetermined concentration of a DMSO solution of the test compound were added, then the incubation was continued for a further 7 days. After the end of the incubation, the result was immobilized by methanol, Giemsa stained and measured for the number of colonies per dish. The results were used to prepare a volume-reaction curve.

[2] = system: VJ-300 cells; assay: In vitro suppression of proliferation of multi-drug resistant VJ-300 cells by concomitant use with doxorubicin; format: cell-based, Human; settings: test compound 1 μg/ml with ADM, ADM alone in KB = 1
Procedure: as §1, §2

[3] = system: TxA2 synthesis; assay: TxA2 synthesis inhibiting action test (human blood platelet microsomes); format: biochemical; settings: prostaglandin H2
Procedure: TxA2 Synthesis Inhibiting Action Test
One ml of a buffer (20 mM Tris-HCl buffer, 1 mM EDTA, pH 7.5) containing human blood platelet microsomes (50 μg protein/ml) and the test compound (final concentration 10^-7 M) was agitated, then incubated at 0° C. for 30 minutes. To this was added prostaglandin H2 (100 ng/2 μl). This was incubated at 23° C. for 3 minutes to cause a reaction. Next, 1M hydrochloric acid was added to make the solution acidic and stop the reaction, then this was neutralized by 1M Tris-Base and centrifuged at 3000 rpm for 20 minutes. The amount of the TxB2 in the supernatant was measured by the EIA method (Cayman Co. kit).

[4] = system: KCl contraction in rat arteries (thoracic aorta); assay: Action easing KCl contraction in rat arteries (thoracic aorta ring); settings: read-out: IC50 value (50% inhibitory concentration of hyperpotassium contraction), Test Example 7, Table 7, 37° C.
Procedure: Action easing KCl contraction in rat arteries
The specimen was stabilized for approximately 60 minutes, then a potassium chloride solution was added to the Magnus tube to give a final concentration of […]. The positive control compound or the compound of the present invention was cumulatively added from 1×10^-10 M to 1×10^-4 M when the contraction reaction occurring at that time reached equilibrium. The contraction force was recorded by an FD-pickup (made by Nihon Kodensha) via a polygraph (made by Nihon Kodensha).

[5] = Acute toxicity test; settings: mouse, in vivo, ip; mice, intraperitoneal, 7 days observation
Procedure: Animals used: ICR male mice (Charles River Japan) 7-8 weeks old, three mice per group.
Test method: The compound of the present invention was suspended in 0.5% sodium carboxymethylcellulose (CMC-Na) containing 0.1% Tween 80. It was administered to the mice intraperitoneally from 2000 mg/kg to 125 mg/kg by a ratio of 1/2 and from 125 mg/kg to 31.3 mg/kg by a ratio of 1/√2 in groups of three mice until no more deaths were observed. The survival of the animals was observed up until 7 days after administration and the LD50 was calculated by the Van Der Wearder area method.

[6] = system: VCR resistant murine leukemia (P388/VCR) cells; assay: In vivo effect for overcoming resistance to vincristine in VCR resistant murine leukemia (P388/VCR) bearing mice; design: species or system CDF1 male mice
Text: In vivo test of action suppressing proliferation of cancer cells by concomitant use with anti-cancer drug
The number of survival days were found and the life prolonging rate (T/C) with respect to the controls was found. The effect in overcoming resistance to an anti-cancer drug (T/V) was found by the following formula.
Effect for overcoming resistance to an anti-cancer drug (T/V) %
=[Life prolonging rate (T/C) in case of concomitant use of VCR and the compound of the present invention]/[Life prolonging rate (T/C) in case of VCR alone]×100
Using Compound 18 to Compound 22 and Compound 32, the same procedure was followed as in Test Example 5 to find the effect for overcoming resistance to an anti-cancer drug in vincristine (VCR) resistant murine leukemia cell bearing mice.

[7] = system: KCl contraction in rat arteries (thoracic aorta); assay: Action easing KCl contraction in rat arteries (thoracic aorta ring); settings: read-out: IC50 value (50% inhibitory concentration of hypercalcemic contraction), Test Example 8, Table 8
[8] = system: multi-drug resistance; settings: Cancer Res., 41, 1967-1972 (1981); Cancer and Chemotherapy, vol. 11, pp. 750-759 (1984); cited from earlier work
[9] = system: KB cells; assay: In vitro suppression of proliferation of KB cancer cells by concomitant use with vincristine; format: cell-based, Human; settings: test compound 1 μg/ml with VCR, VCR alone in KB = 1
Procedure: as §2
In vitro test of action suppressing proliferation of cancer cells by concomitant use with vincristine […]

[10] = system: VJ-300 cells; assay: In vitro suppression of proliferation of multi-drug resistant VJ-300 cells by concomitant use with vincristine; format: cell-based, Human; settings: test compound 1 μg/ml with VCR, VCR alone in KB = 1
[11] = Test Example 5, Table 5, T/C with VCR + compound over T/C with VCR alone ×100
[12] = Test Example 5, Table 5, VCR 100 μg/kg i.p. 5 days with compound 100 mg/kg (verapamil 60, nicardipine 75 mg/kg)
[13] = Test Example 6, Table 6, same procedure as Test Example 5

SMILES | TxA2 synthesis inhibiting action Rate of suppression at 10^-7 mol (%) [3] [%] | LD50 at 168 h [5] [mg/kg] | Effect for overcoming resistance T/V (%) [6, 11] [%] | Life prolonging rate T/C (%) [6, 12] [%] | Mean days of survival [6, 12] [days] | IC50 [7] [µM] | other results
COc1cccc2c1C(=O)c1c(O)c3c(c(O)c1C2=O)C[C@@](O)(C(=O)CO)C[C@@H]3O[C@H]1C[C@H](N)[C@H](O)[C@H](C)O1 [ADM, doxorubicin] | – | – | – | – | – | – | Resistance with ADM, KB (LD50 concentration of ADM relative to ADM alone in KB cells) [1]: 1; Resistance with ADM, VJ-300 (LD50 concentration of ADM relative to ADM alone in KB cells) [2]: 26.4
CC1=C(C(=O)OCCCc2cccnc2)C(C(C)C)C(C(=O)OCCCc2cccnc2)=C(C)N1 [Compound 1, 2,6-dimethyl-4-isopropyl-1,4-dihydropyridine-3,5-dicarboxylic acid bis[3-(3-pyridyl)propyl]ester] | 90.7 | 750 | – | – | – | – | IC50 [4]: > 30 µM
CCCC(C)C1C(C(=O)OCCCc2cccnc2)=C(C)NC(C)=C1C(=O)OCCCc1cccnc1 (stereo not shown) [Compound 3, 2,6-dimethyl-4-(1-methylbutyl)-1,4-dihydropyridine-3,5-dicarboxylic acid bis[3-(3-pyridyl)propyl]ester] | 82.4 | 188 | 161 | 172 | 17.2 | – | –
CC1=C(C(=O)OCCCc2cccnc2)C(Cc2ccccc2)C(C(=O)OCCCc2cccnc2)=C(C)N1 [Compound 5, 2,6-dimethyl-4-benzyl-1,4-dihydropyridine-3,5-dicarboxylic acid bis[3-(3-pyridyl)propyl]ester] | – | 1120 | – | – | – | 42 | –
CC1=C(C(=O)OCCCc2cccnc2)C(C(c2ccccc2)c2ccccc2)C(C(=O)OCCCc2cccnc2)=C(C)N1 [Compound 6, 2,6-dimethyl-4-benzhydryl-1,4-dihydropyridine-3,5-dicarboxylic acid bis[3-(3-pyridyl)propyl]ester] | – | 2000 | – | – | – | – | IC50 [4]: 25.5 µM
COC(=O)C1=C(C)NC(C)=C(C(=O)OCCCc2cccnc2)C1C(C)C (stereo not shown) [Compound 13, 2,6-dimethyl-4-isopropyl-1,4-dihydropyridine-3,5-dicarboxylic acid 3-methylester 5-[3-(3-pyridyl)propyl]ester] | 71.4 | – | – | – | – | 5.7 | –
CC1=C(C(=O)OCCCc2cccnc2)C(C(C)C)C(C(=O)OCc2ccncc2)=C(C)N1 (stereo not shown) [Compound 15, 2,6-dimethyl-4-isopropyl-1,4-dihydropyridine-3,5-dicarboxylic acid 3-(4-pyridylmethyl) ester, 5-[3-(3-pyridyl)propyl]ester] | 83.5 | – | 134 | 144 | 14.4 | 4.2 | –
CCCCCCCCC1C(C(=O)OCCCc2cccnc2)=C(C)NC(C)=C1C(=O)OCCCc1cccnc1 [Compound 16, 2,6-dimethyl-4-n-octyl-1,4-dihydropyridine-3,5-dicarboxylic acid bis[3-(3-pyridyl)propyl]ester] | – | > 2000 | – | – | – | 62 | –
CCCCCC1C(C(=O)OCCCc2cccnc2)=C(C)NC(C)=C1C(=O)OCCCc1cccnc1 [Compound 18, 2,6-dimethyl-4-n-pentyl-1,4-dihydropyridine-3,5-dicarboxylic acid bis[3-(3-pyridyl)propyl]ester] | – | > 2000 | – | – | – | 4.6 | Effect for overcoming resistance T/V (%) [6, 13]: 140%; Life prolonging rate T/C (%) [6, 13]: 143%; Mean days of survival [6, 13]: 15.3 days
CCCCCC#CC1C(C(=O)OCCCc2cccnc2)=C(C)NC(C)=C1C(=O)OCCCc1cccnc1 [Compound 32, 2,6-dimethyl-4-(1-heptynyl)-1,4-dihydropyridine-3,5-dicarboxylic acid bis[3-(3-pyridyl)propyl]ester] | – | – | – | – | – | 10.5 | Effect for overcoming resistance T/V (%) [6, 13]: 133%; Life prolonging rate T/C (%) [6, 13]: 136%; Mean days of survival [6, 13]: 14.5 days
COC(=O)C1=C(C)NC(C)=C(C(=O)OCCN(C)Cc2ccccc2)C1c1cccc([N+](=O)[O-])c1 (stereo not shown) [Nicardipine, nicardipine, reference compound] | – | – | 123 | 132 | 13.2 | 0.15 | IC50 [4]: 0.53 µM; overcoming multi-drug resistance by concomitant administration with an anti-cancer drug [8]: effective
CC[C@]1(O)C[C@H]2CN(CCc3c([nH]c4ccccc34)[C@@](C(=O)OC)(c3cc4c(cc3OC)N(C=O)[C@H]3[C@@](O)(C(=O)OC)[C@H](OC(C)=O)[C@]5(CC)C=CCN6CC[C@]43[C@@H]65)C2)C1 [VCR, vincristine, reference compound] | – | – | 100 | 107 | 10.7 | – | Resistance with VCR, KB (LD50 concentration of VCR relative to VCR alone in KB cells) [9]: 1; Resistance with VCR, VJ-300 (LD50 concentration of VCR relative to VCR alone in KB cells) [10]: 603.4; Effect for overcoming resistance T/V (%) [6, 13]: 100%; Life prolonging rate T/C (%) [6, 13]: 102%; Mean days of survival [6, 13]: 10.9 days

— patent US5843950A, “1,4-dihydropyridine compound and pharmaceutical composition containing the same” (Nikken Chemicals Co., Ltd., priority 1994, dated 1998)
